Data taken from patent publication US11849727B2, “Synergistic formulations for control and repellency of biting arthropods” (Bedoukian Research, Inc., priority 2013, dated 2023).

Tested on: Aedes aegypti
Test: Arm in Cage testing on human subjects (modified WHO - Nigel Hill protocol), dose response
Format: in vivo
Conditions: individual component, LDP Line dose response curve
Method: A Modified WHO-[…] protocol was used for Dose Response curve generation. Three concurrent repetitions were conducted with 4 subjects (2 male, 2 female). Approximately 60 non blood-fed, female Aedes aegypti mosquitoes were placed in a 12''×12''×12'' (28316.85 cm^3) plexi and screen cage. […] Arms were inserted into the first cage for 30 seconds, with number of landings (with intent to bite) recorded at the end of the time interval. The same procedure was used for the 2nd and 3rd cage in succession. Control arm was inserted first, followed by the opposite arm treated with ethanol only (as a treatment control). The 'treatment arm' is then treated with dose 1 and inserted, then dose 2, dose 3, and so on. After complete protection was achieved, control arm was reinserted to verify continued activity. Percent repellency was calculated by utilizing the formula [{(C-T)/C}*100]. Where C=the number of mosquitoes landing with intent to bite on the ethanol only treated arm, and T=the number of mosquitoes landing with intent to bite on the 'repellent' treated arm. LDP Line® software (Bakr, E 2007) was used to determine ED50 (effective dose to repel 50%) and compare materials. […] Significance was determined by the use of 95% confidence intervals. […]

Structure (SMILES): CCN(CC)C(=O)c1cccc(C)c1 [DEET, N,N-Diethyl-m-toluamide]
- percent dose required to generate an ED25 (25% repellency): 0.035%
